In ChEMBL document CHEMBL1201862, “PubChem BioAssay data set” (2004):
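Tested at 5 concentrations; 48 h exposure; 96-well plates; endpoints linearly interpolated, else capped at highest concentration. At the GI50, growth is halved.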 Calls of active or inactive are those of the source. Cut-off read from the data, not from the text of the source: active = GI50 up to about 1.1 µM and inactive = higher.

Key:
Assay in all cases: inhibition of tumour cell growth, NCI panel, 48 h
786-0 = tested on: 786-0
A498 = tested on: A498
A549 = tested on: A549
ACHN = tested on: ACHN
CAKI-1 = tested on: CAKI-1
HCT-116 = tested on: HCT-116
HOP-62 = tested on: HOP-62
IGROV-1 = tested on: IGROV-1
M14 = tested on: M14
NCI-H23 = tested on: NCI-H23
NCI-H460 = tested on: NCI-H460
OVCAR-5 = tested on: OVCAR-5
RXF 393 = tested on: RXF 393
SK-MEL-2 = tested on: SK-MEL-2
SN12C = tested on: SN12C
UACC-257 = tested on: UACC-257
UO-31 = tested on: UO-31
NCI-H226 = tested on: NCI-H226

Measured: GI50

CC1CC(C2=CC=CCS2)=Nc2ccccc2S1 (stereo not drawn)
inactive: 786-0 > 100 µM | A498 > 100 µM | A549 > 100 µM | ACHN > 100 µM | CAKI-1 > 100 µM | HCT-116 84.9 µM | HOP-62 > 100 µM | IGROV-1 > 100 µM | M14 > 100 µM | NCI-H23 > 100 µM | NCI-H460 > 100 µM | OVCAR-5 > 100 µM | RXF 393 > 100 µM | SK-MEL-2 > 100 µM | SN12C > 100 µM | UACC-257 12.3 µM | UO-31 > 100 µM

CC(C)N(C(=O)C12C3C4C5C3C1(C(=O)N(C(C)C)C(C)C)C5C42)C(C)C (stereo not drawn)
inactive: 786-0 > 100 µM | A498 > 100 µM | A549 > 58.9 µM | ACHN > 100 µM | CAKI-1 > 100 µM | HCT-116 > 43.6 µM | HOP-62 > 100 µM | IGROV-1 > 100 µM | M14 > 100 µM | NCI-H226 > 100 µM | NCI-H23 > 100 µM | NCI-H460 > 56.8 µM | OVCAR-5 > 100 µM | RXF 393 > 100 µM | SK-MEL-2 > 100 µM | SN12C > 100 µM | UACC-257 > 100 µM | UO-31 > 100 µM

NC1=NN(c2ccccc2)C(=O)C1/C(=N\NC(=O)c1cc2ccccc2cc1O)C(=O)Nc1nc([N+](=O)[O-])cs1 (stereo not drawn)
inactive: 786-0 31.5 µM | A498 41.2 µM | A549 32.7 µM | ACHN 34.4 µM | CAKI-1 > 25.6 µM | HCT-116 32.1 µM | HOP-62 54 µM | IGROV-1 19.1 µM | M14 35.7 µM | NCI-H226 49.1 µM | NCI-H23 18.4 µM | NCI-H460 18.1 µM | OVCAR-5 44.9 µM | RXF 393 2.73 µM | SK-MEL-2 > 49.8 µM | SN12C 37 µM | UACC-257 22.2 µM | UO-31 9.42 µM

COC1=CC(=O)[C@H]2[C@H](C)C(c3ccccc3)[C@@]2(C)C1=O (stereo partly drawn)
inactive: 786-0 > 100 µM | A498 > 100 µM | A549 > 100 µM | ACHN > 100 µM | CAKI-1 > 100 µM | HOP-62 > 100 µM | IGROV-1 > 100 µM | M14 > 100 µM | NCI-H23 > 100 µM | NCI-H460 > 100 µM | OVCAR-5 > 100 µM | RXF 393 > 100 µM | SK-MEL-2 > 100 µM | UO-31 > 100 µM

COC(=O)/C(=C/c1ccc(OC)cc1)C(C(=O)O)=C1CCCC1
inactive: 786-0 > 100 µM | A498 > 100 µM | A549 > 100 µM | ACHN > 100 µM | CAKI-1 > 100 µM | HCT-116 > 100 µM | HOP-62 > 100 µM | IGROV-1 > 100 µM | M14 > 100 µM | NCI-H226 > 100 µM | NCI-H23 > 100 µM | NCI-H460 > 100 µM | OVCAR-5 > 100 µM | RXF 393 > 100 µM | SK-MEL-2 > 100 µM | SN12C > 100 µM | UACC-257 > 100 µM | UO-31 > 100 µM

CC(C)=CCOc1ccc(-c2coc3cc4c(c(O)c3c2=O)C=CC(C)(C)O4)cc1
inactive: 786-0 96.8 µM | A498 14.9 µM | A549 32.9 µM | ACHN > 100 µM | HCT-116 6.9 µM | HOP-62 > 100 µM | IGROV-1 21.1 µM | NCI-H226 > 100 µM | NCI-H23 5.35 µM | NCI-H460 63.2 µM | OVCAR-5 > 100 µM | RXF 393 > 100 µM | SN12C > 100 µM | UACC-257 14.3 µM | UO-31 > 100 µM

CCOc1ccccc1NC(=O)C(=O)Cc1nc2ccccc2s1
inactive: 786-0 > 100 µM | A498 > 100 µM | A549 > 100 µM | ACHN > 100 µM | CAKI-1 > 100 µM | HCT-116 > 100 µM | HOP-62 > 100 µM | IGROV-1 > 100 µM | M14 > 100 µM | NCI-H226 > 100 µM | NCI-H23 > 100 µM | NCI-H460 > 100 µM | RXF 393 > 100 µM | SK-MEL-2 > 100 µM | SN12C > 100 µM | UACC-257 > 100 µM | UO-31 > 100 µM

CCOC(=O)c1oc2ccc(OC)c3c2c1CCC3
inactive: 786-0 > 100 µM | A498 > 100 µM | A549 > 100 µM | ACHN > 100 µM | HOP-62 > 100 µM | IGROV-1 > 100 µM | M14 > 100 µM | NCI-H226 > 100 µM | NCI-H23 59.6 µM | NCI-H460 > 100 µM | OVCAR-5 44.7 µM | RXF 393 70 µM | SK-MEL-2 > 100 µM | SN12C > 100 µM | UACC-257 13.7 µM | UO-31 32.1 µM

CC(=O)/C=C1\CC(=O)Nc2ccccc2N1
inactive: 786-0 > 100 µM | A498 > 100 µM | A549 > 100 µM | ACHN > 100 µM | CAKI-1 > 100 µM | HCT-116 > 100 µM | IGROV-1 > 100 µM | M14 > 100 µM | NCI-H226 > 100 µM | NCI-H23 > 100 µM | NCI-H460 > 100 µM | OVCAR-5 > 100 µM | RXF 393 > 100 µM | SK-MEL-2 > 100 µM | SN12C > 100 µM | UACC-257 > 100 µM | UO-31 > 100 µM

C/N=C(\N=c1/ss/c(=N\C)n1C)N(C)C.[O-][Cl+3]([O-])([O-])O
inactive: 786-0 > 100 µM | A498 29.2 µM | A549 > 100 µM | ACHN > 100 µM | CAKI-1 78.2 µM | IGROV-1 > 100 µM | M14 > 100 µM | NCI-H226 45.2 µM | NCI-H23 54.6 µM | NCI-H460 > 100 µM | OVCAR-5 > 100 µM | RXF 393 > 100 µM | SN12C > 100 µM | UACC-257 97.3 µM | UO-31 > 100 µM

O=C1C(Cl)C(c2ccccc2)N1n1cnc2ccccc2c1=O (stereo not drawn)
inactive: 786-0 > 100 µM | A549 > 100 µM | ACHN > 100 µM | CAKI-1 37.8 µM | HCT-116 > 100 µM | HOP-62 > 100 µM | IGROV-1 > 100 µM | M14 > 100 µM | NCI-H226 28.4 µM | NCI-H23 > 100 µM | NCI-H460 > 100 µM | OVCAR-5 > 100 µM | RXF 393 76.9 µM | SK-MEL-2 > 100 µM | SN12C > 100 µM | UACC-257 > 100 µM | UO-31 23.6 µM

CC1=C(C(=O)CC(=O)C(=O)Nc2ccc(C)c(C)c2)Sc2ccccc2N1
inactive: 786-0 > 100 µM | A498 > 100 µM | A549 > 100 µM | ACHN > 100 µM | CAKI-1 > 100 µM | HCT-116 > 100 µM | HOP-62 > 100 µM | IGROV-1 > 100 µM | M14 > 100 µM | NCI-H226 > 100 µM | NCI-H23 > 100 µM | NCI-H460 > 100 µM | OVCAR-5 > 100 µM | RXF 393 > 100 µM | SN12C > 100 µM | UACC-257 > 100 µM | UO-31 > 100 µM

CCOC(=O)C1(C/C=C(/C)Cl)CCCC1=O (stereo not drawn)
inactive: 786-0 > 100 µM | A498 > 100 µM | A549 > 100 µM | ACHN > 100 µM | CAKI-1 > 100 µM | HCT-116 > 100 µM | HOP-62 > 100 µM | IGROV-1 > 100 µM | M14 > 100 µM | NCI-H226 > 100 µM | NCI-H23 > 100 µM | NCI-H460 > 100 µM | OVCAR-5 > 100 µM | RXF 393 > 100 µM | SK-MEL-2 > 100 µM | SN12C > 100 µM | UACC-257 > 100 µM | UO-31 > 100 µM

COc1ccc2cc3[n+](cc2c1OC)CCc1cc(O)c(O)cc1-3
inactive: 786-0 > 100 µM | A498 > 100 µM | A549 > 100 µM | CAKI-1 > 100 µM | HCT-116 > 100 µM | HOP-62 > 100 µM | IGROV-1 > 100 µM | M14 > 100 µM | NCI-H226 > 100 µM | NCI-H23 > 100 µM | NCI-H460 > 100 µM | OVCAR-5 > 100 µM | RXF 393 > 100 µM | SN12C > 100 µM | UACC-257 > 100 µM | UO-31 > 100 µM

CC(=O)OC1CC2C(C)(C)C(=O)C=C[C@]2(C)C2CCC3(C)C(c4ccoc4)[C@@H](O)[C@H]4O[C@]43[C@]12C (stereo partly drawn)
inactive: 786-0 17.5 µM | A498 29.6 µM | A549 36 µM | ACHN 21.8 µM | CAKI-1 22 µM | HCT-116 24.9 µM | HOP-62 22.7 µM | IGROV-1 24 µM | M14 19.9 µM | NCI-H226 18.4 µM | NCI-H23 18.1 µM | NCI-H460 19.3 µM | OVCAR-5 25.9 µM | RXF 393 19.1 µM | SK-MEL-2 18.9 µM | SN12C 18.6 µM | UACC-257 21.4 µM | UO-31 17.8 µM

O=C(CC1(O)C(=O)Nc2ccc(Br)cc21)c1ccc(Cl)cc1 (stereo not drawn)
inactive: 786-0 75.7 µM | A498 > 100 µM | A549 > 100 µM | ACHN > 100 µM | HCT-116 44.4 µM | HOP-62 68.9 µM | IGROV-1 > 100 µM | M14 83.2 µM | NCI-H226 > 100 µM | NCI-H23 67.6 µM | NCI-H460 > 100 µM | OVCAR-5 > 100 µM | RXF 393 52.2 µM | SK-MEL-2 > 100 µM | SN12C 77.8 µM | UACC-257 30.2 µM | UO-31 > 100 µM
